This note sets out measurements from patent US20090208539A1, “STABLE ATORVASTATIN FORMULATIONS” (priority 2004, published 2009).

The structures appear in SMILES notation.

This data set is described as follows: Compatibility test of atorvastatin calcium with excipients (water added, sealed vial, 50° C., two weeks; impurities by HPLC, physical changes). The data set is classed as physicochemical. Conditions: for Compatibility: 0.2 ml water added, sealed vial, two weeks. Here is the method: In order for an excipient to be used with an embodiment of the formulation of the present invention, it was required to perform acceptably during the compatibility testing. The acceptance criteria for the compatibility test were as follows. […] Physical stability was determined by examining the mixture's appearance in terms of discoloration, liquefaction, dryness and odor or gas.
A granulate or dry mix of the drug substance and each of the excipients requested to the expected ratio in the possible final formulas was prepared. The granulate was prepared manually with a mortar and pestle. The active ingredient is mixed with the ingredient(s) to be tested, then granulated in a mortar and pestle using the aqueous granulation solution. The wet granulate was then dried in an oven at 60° C. down to LOD<5% and then milled.
The compatibility test was performed as follows. Each mixture (blend or granulate) was transferred to a vial, 0.2 ml of purified water was added, and the mixtures were mixed with a Pasteur pipette, which was then broken and inserted in the vial in order to avoid any loss of material.
The vials were then sealed and stored at a temperature of 50° C. for two weeks.
After two weeks the vials were removed, examined for physical changes and were tested for impurities according to the HPLC method (RD 2000-1) as described in greater detail below.
75 ml of diluent was added and the samples were shaken for 30 min, and then diluted to volume with diluent.
5 ml of the above mentioned solution was transferred and diluted in a 10 ml volumetric flask. The diluent for all experiments was water:methanol mixture.
Part of each dry granulate was placed in a 34 ml Securitainer® (a regular secure medicine bottle made from high density polyethylene; available from Jaycare Ltd in the United Kingdom) and placed in incubator at 40° C./75% RH for a 6 month stability study. Next, separate samples containing 1 g of each dry granulate were mixed with 200 μl water (LOD of the blend 16.67%), closed in a glass vial and stored at 50° C. for a 2 week compatibility test.
Results of those compatibility and stability studies are summarized in table 4; a more detailed description of the same results is provided in table 5 below. Stability or compatibility criteria were defined as: maximum known impurity <0.5% (preferably comprising one or both of the Desfluoro (Desfl.) or lactone (Lact.) degradation forms); maximum unknown impurity <0.5%, preferably <0.3%; total impurities <1.5%.
One gram of each blend was mixed with 200 μl purified water (LOD of the blend was 16.67%), placed in a closed glass vial and placed for 2 weeks in an incubator at 50° C. for a compatibility test.

Where [1] appears, read: amorphous atorvastatin calcium, no excipient, 2 weeks, 16.7% LOD.

For `CC(C)c1c(C(=O)Nc2ccccc2)c(-c2ccccc2)c(-c2ccc(F)cc2)n1CC[C@@H](O)C[C@@H](O)CC(=O)[O-].CC(C)c1c(C(=O)Nc2ccccc2)c(-c2ccccc2)c(-c2ccc(F)cc2)n1CC[C@@H](O)C[C@@H](O)CC(=O)[O-].[Ca+2]` [Reference (no excipient added)], under setting [1], the Desfluoro is listed as 0.12%, the Lactone is 0.04%, the Max unknown impurity was determined as 0.05% and the “Total Impurities” value is 0.33%.
On to `CC(C)c1c(C(=O)Nc2ccccc2)c(-c2ccccc2)c(-c2ccc(F)cc2)n1CC[C@@H](O)C[C@@H](O)CC(=O)[O-].CC(C)c1c(C(=O)Nc2ccccc2)c(-c2ccccc2)c(-c2ccc(F)cc2)n1CC[C@@H](O)C[C@@H](O)CC(=O)[O-].[Ca+2]` [Vial 1], for which the Compatibility entry is listed as “Stable” (amorphous Atorvastatin Ca dry mixes) and “Stable” (crystalline form VI Atorvastatin Ca granulates).
